From patent US11584763B2, “Chromenopyridine derivatives as phosphatidylinositol phosphate kinase inhibitors” (HIBERCELL, INC., priority 2017, dated 2023)

Key:
Type in all cases: biochemical
PIP4K 2A [1] = molecular target: T1, PIP4K 2A (Homo sapiens, UniProt P48426); experiment: ADP-glo kinase assay PIP4K 2A; design: 4 nM PIP4K2A (full length protein, SignalChem); purchased SignalChem; details: compounds listed under IC50 bin headings
T1 sequence (P48426 1-406): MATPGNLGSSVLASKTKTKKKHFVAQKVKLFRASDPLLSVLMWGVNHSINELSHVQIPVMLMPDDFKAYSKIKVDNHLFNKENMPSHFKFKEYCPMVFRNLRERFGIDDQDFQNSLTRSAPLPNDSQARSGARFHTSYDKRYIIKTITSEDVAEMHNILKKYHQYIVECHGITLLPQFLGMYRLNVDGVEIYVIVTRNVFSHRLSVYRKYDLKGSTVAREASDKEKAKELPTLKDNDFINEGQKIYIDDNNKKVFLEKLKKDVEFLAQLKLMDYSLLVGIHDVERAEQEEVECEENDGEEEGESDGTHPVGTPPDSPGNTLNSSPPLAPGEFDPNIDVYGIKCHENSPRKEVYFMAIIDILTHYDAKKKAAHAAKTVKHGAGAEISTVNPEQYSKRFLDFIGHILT
Summary of the method: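 Full-length PIP4K2A was pre-incubated 15 min at RT with compound in 20 mM MOPS pH 7.2, 25 mM MgCl2, 0.005% Tween 20. The enzyme mix held 4 nM kinase and 100 μM PI(5)P diC8, and ATP was added from a 60 μM solution. After 1 h at RT, ADP-Glo luminescence gave % inhibition versus DMSO, fitted to IC50 over 10 threefold dilutions.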

PIP4K2B = molecular target: T2, PIP4K2B (Homo sapiens, UniProt P78356); experiment: Trans-FI P kinase assay PIP4K2B (PIP4KtypeIIB inhibition assay); details: compounds listed under IC50 bin headings; 100 uM GTP; read-out: Trans-FI P kinase assays: PIP4K2B IC50
T2 construct: made in house; host or cells: E. coli
T2 sequence (P78356 1-416): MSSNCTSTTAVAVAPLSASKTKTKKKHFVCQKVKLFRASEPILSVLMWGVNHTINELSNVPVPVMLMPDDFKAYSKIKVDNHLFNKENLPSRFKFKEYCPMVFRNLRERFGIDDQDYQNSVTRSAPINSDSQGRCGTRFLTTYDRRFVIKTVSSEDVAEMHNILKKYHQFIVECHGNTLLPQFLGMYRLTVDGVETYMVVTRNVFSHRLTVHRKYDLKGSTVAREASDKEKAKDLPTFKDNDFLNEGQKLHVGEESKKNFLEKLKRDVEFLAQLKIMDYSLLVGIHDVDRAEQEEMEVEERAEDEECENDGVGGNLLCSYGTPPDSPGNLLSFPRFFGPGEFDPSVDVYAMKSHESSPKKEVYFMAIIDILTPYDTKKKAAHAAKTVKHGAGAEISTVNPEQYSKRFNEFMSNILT
Summary of the method: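 GST-tagged human PIP4K2B (5 nM, E. coli-expressed) preincubated 1 h at 27 C with compound (top 4.8 uM, 5% DMSO), then reacted 2 h with 100 uM GTP and 80 uM PI5P/DOPE vesicles in HEPES pH 7.3, MgCl2, Triton X-100. GDP detected by Transcreener FI fluorescence via calibration curve; IC50 from % activity vs log[inhibitor].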

PIP4K 2A [2] = molecular target: T1, PIP4K 2A; experiment: Kinase Assay PIP4K2 A (PIP4KtypeIIA inhibition assay); design: made in house; host or cells: E. coli; details: compounds listed under IC50 bin headings
Summary of the method: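 GST-tagged enzyme from E. coli at 0.5 nM final was preincubated with compound for 1 h at 27 C, then reacted with 10 uM ATP, 80 uM PI5P and DOPE carrier in 50 mM HEPES pH 7.3, 5% DMSO. After 1 h, ADP was measured by ADP-Glo luminescence against a calibration curve. IC50 was fitted from % residual activity.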

SMILES | IC50 (PIP4K 2A [1]) [nM] | IC50 (PIP4K2B) [nM] | IC50 (PIP4K 2A [2]) [nM]
CC1Oc2cc(N3CCCC3=O)ccc2-c2cnc(Nc3cnc4c(c3)NCCO4)cc21 (stereo not drawn) [Example 94, 1-(3-((2,3-dihydro-1H-pyrido[2,3-b][1,4]oxazin-7-yl)amino)-5-methyl-5H-chromeno[4,3-c]pyridin-8-yl)pyrrolidin-2-one] | 1 to 10 | 10 to 100 | 1 to 10
CC1Oc2cc(N3CCCC3=O)ccc2-c2cnc(Nc3cncc(F)c3)cc21 (stereo not drawn) [Example 50, 1-(3-((5-fluoropyridin-3-yl)amino)-5-methyl-5H-chromeno[4,3-c]pyridin-8-yl)pyrrolidin-2-one] | 10 to 100 | > 1000 | 1 to 10
CC1Oc2cc(N3CCCC3=O)ccc2-c2cnc(Nc3cncc(N4CCNC4=O)c3)cc21 (stereo not drawn) [Example 55, 1-(5-((5-methyl-8-(2-oxopyrrolidin-1-yl)-5H-chromeno[4,3-c]pyridin-3-yl)amino)pyridin-3-yl)imidazolidin-2-one] | 1 to 10 | 10 to 100 | ≤ 1
CC1Oc2cc(N3CCCC3=O)ccc2-c2cnc(Nc3cnc4c(c3)N(C(=O)CO)CCO4)cc21 (stereo not drawn) [Example 61, 1-(3-((1-(2-hydroxyacetyl)-2,3-dihydro-1H-pyrido[2,3-b][1,4]oxazin-7-yl)amino)-5-methyl-5H-chromeno[4,3-c]pyridin-8-yl)pyrrolidin-2-one] | ≤ 1 | 1 to 10 | ≤ 1
CC(=O)Nc1cncc(Nc2cc3c(cn2)-c2ccc(N4CCCC4=O)cc2OC3C)c1 (stereo not drawn) [Example 100, N-(5-((5-methyl-8-(2-oxopyrrolidin-1-yl)-5H-chromeno[4,3-c]pyridin-3-yl)amino)pyridin-3-yl)acetamide] | 10 to 100 | 10 to 100 | ≤ 1
CC1Oc2cc(N3CCCC3=O)ccc2-c2cnc(Nc3cnc4scnc4c3)cc21 (stereo not drawn) [Example 65, 1-(5-methyl-3-(thiazolo[5,4-b]pyridin-6-ylamino)-5H-chromeno[4,3-c]pyridin-8-yl)pyrrolidin-2-one] | 10 to 100 | 100 to 1000 | 1 to 10
CC(C)C(=O)N1CCOc2ncc(Nc3cc4c(cn3)-c3ccc(N5CCCC5=O)cc3OC4C)cc21 (stereo not drawn) [Example 84, 1-(3-((1-isobutyryl-2,3-dihydro-1H-pyrido[2,3-b][1,4]oxazin-7-yl)amino)-5-methyl-5H-chromeno[4,3-c]pyridin-8-yl)pyrrolidin-2-one] | ≤ 1 | 1 to 10 | ≤ 1
CC1Oc2cc(N3CCCC3=O)ccc2-c2cnc(Nc3cncc(N(C)S(C)(=O)=O)c3)cc21 (stereo not drawn) [Example 48, N-methyl-N-(5-((5-methyl-8-(2-oxopyrrolidin-1-yl)-5H-chromeno[4,3-c]pyridin-3-yl)amino)pyridin-3-yl)methanesulfonamide] | 1 to 10 | 100 to 1000 | 1 to 10
CC1(C)Oc2cc(N3CCCC3=O)c(F)cc2-c2cnc(Nc3cncc(N4CCNC4=O)c3)cc21 [Example 149, 1-(5-((9-fluoro-5,5-dimethyl-8-(2-oxopyrrolidin-1-yl)-5H-chromeno[4,3-c]pyridin-3-yl)amino)pyridin-3-yl)imidazolidin-2-one] | 1 to 10 | 10 to 100 | ≤ 1
CC1c2cc(Nc3cccnc3)ncc2-c2ccc(C(=O)N(C)C)cc2N1C (stereo not drawn) [Example 37, N,N,5,6-tetramethyl-3-(pyridin-3-ylamino)-5,6-dihydrobenzo[c][2,6]naphthyridine-8-carboxamide] | 10 to 100 | 100 to 1000 | 1 to 10
CC1Oc2cc(C(=O)N(C)C)ccc2-c2cnc(Nc3cnc4c(c3)N3C(=O)CC[C@H]3CO4)cc21 (stereo partly drawn) [Example 33, N,N,5-trimethyl-3-(((S)-9-oxo-6a,7,8,9-tetrahydro-6H-pyrido[2,3-b]pyrrolo[1,2-d][1,4]oxazin-2-yl)amino)-5H-chromeno[4,3-c]pyridine-8-carboxamide] | 1 to 10 | 1 to 10 | ≤ 1
CC1Oc2cc(N3CCCC3=O)ccc2-c2cnc(Nc3cncc(N4CCOCC4)c3)cc21 (stereo not drawn) [Example 96, 1-(5-methyl-3-((5-morpholinopyridin-3-yl)amino)-5H-chromeno[4,3-c]pyridin-8-yl)pyrrolidin-2-one] | 1 to 10 | 100 to 1000 | 1 to 10
CC1Oc2cc(N3CCCC3=O)ccc2-c2cnc(Nc3cnc4c(c3)N(S(C)(=O)=O)CCO4)cc21 (stereo not drawn) [Example 49, 1-(5-methyl-3-((1-(methylsulfonyl)-2,3-dihydro-1H-pyrido[2,3-b][1,4]oxazin-7-yl)amino)-5H-chromeno[4,3-c]pyridin-8-yl)pyrrolidin-2-one] | 1 to 10 | 100 to 1000 | ≤ 1
CC1Oc2cc(N3CCCC3=O)ccc2-c2cnc(Nc3cncc(C(F)(F)F)c3)cc21 (stereo not drawn) [Example 81, 1-(5-methyl-3-((5-(trifluoromethyl)pyridin-3-yl)amino)-5H-chromeno[4,3-c]pyridin-8-yl)pyrrolidin-2-one] | 100 to 1000 | > 1000 | 10 to 100
CS(=O)(=O)N1CCOc2ncc(Nc3cc4c(cn3)-c3ccc(N5CCCC5=O)cc3OC4)cc21 [Example 78, 1-(3-((1-(methylsulfonyl)-2,3-dihydro-1H-pyrido[2,3-b][1,4]oxazin-7-yl)amino)-5H-chromeno[4,3-c]pyridin-8-yl)pyrrolidin-2-one] | ≤ 1 | 1 to 10 | ≤ 1
CC1Oc2cc(N3CCCC3=O)ccc2-c2cnc(Nc3cnc4c(c3)N3C(=O)CC[C@H]3CO4)cc21 (stereo partly drawn) [Example 40, (6aS)-2-((5-methyl-8-(2-oxopyrrolidin-1-yl)-5H-chromeno[4,3-c]pyridin-3-yl)amino)-6,6a,7,8-tetrahydro-9H-pyrido[2,3-b]pyrrolo[1,2-d][1,4]oxazin-9-one] | ≤ 1 | 1 to 10 | ≤ 1
CC1Oc2cc(N3CCCC3=O)ccc2-c2cnc(Nc3cnc4c(c3)N(S(=O)(=O)C3CC3)CCO4)cc21 (stereo not drawn) [Example 52, 1-(3-((1-(cyclopropylsulfonyl)-2,3-dihydro-1H-pyrido[2,3-b][1,4]oxazin-7-yl)amino)-5-methyl-5H-chromeno[4,3-c]pyridin-8-yl)pyrrolidin-2-one] | 1 to 10 | 100 to 1000 | ≤ 1
CC1Oc2cc(N3CCCC3=O)ccc2-c2cnc(Nc3cccnn3)cc21 (stereo not drawn) [Example 128, 1-(5-methyl-3-(pyridazin-3-ylamino)-5H-chromeno[4,3-c]pyridin-8-yl)pyrrolidin-2-one] | 10 to 100 | 100 to 1000 | 1 to 10
CC1Oc2cc(N3CCCC3=O)ccc2-c2cnc(Nc3cnc4c(c3)OCCO4)cc21 (stereo not drawn) [Example 62, 1-(3-((2,3-dihydro-[1,4]dioxino[2,3-b]pyridin-7-yl)amino)-5-methyl-5H-chromeno[4,3-c]pyridin-8-yl)pyrrolidin-2-one] | 1 to 10 | 10 to 100 | ≤ 1
CC1c2cc(Nc3cnc4c(c3)N3C(=O)CC[C@H]3CO4)ncc2-c2ccc(N3CCCC3=O)cc2N1C (stereo partly drawn) [Example 44, (6aS)-2-((5,6-dimethyl-8-(2-oxopyrrolidin-1-yl)-5,6-dihydrobenzo[c][2,6]naphthyridin-3-yl)amino)-6,6a,7,8-tetrahydro-9H-pyrido[2,3-b]pyrrolo[1,2-d][1,4]oxazin-9-one] | 1 to 10 | 10 to 100 | ≤ 1
CC(=O)N1CCOc2ncc(Nc3cc4c(cn3)-c3ccc(N5CCCC5=O)cc3OC4C)cc21 (stereo not drawn) [Example 42, 1-(3-((1-acetyl-2,3-dihydro-1H-pyrido[2,3-b][1,4]oxazin-7-yl)amino)-5-methyl-5H-chromeno[4,3-c]pyridin-8-yl)pyrrolidin-2-one] | 1 to 10 | 10 to 100 | ≤ 1
